Patent publication US7855215B2, “Cyclic diaryl ureas suitable as tyrosine kinase inhibitors” (Novartis AG, priority 2004, dated 2010)

Compound	melting point [°C]
CNc1cc(Oc2ccc3c(c2)CCCN3C(=O)Nc2ccc(C(C)(C)C)cc2)ncn1 [Example 3, 6-(6-Methylamino-pyrimidin-4-yloxy)-3,4-dihydro-2H-quinoline-1-carboxylic acid (4-tert.butyl-phenyl)-amide]	175 to 176
Nc1nc(Cl)cc(Oc2ccc3c(c2)CCCCN3C(=O)Nc2cccc(C(F)(F)F)c2)n1 [Example 6, 7-(2-Amino-6-chloro-pyrimidin-4-yloxy)-2,3,4,5-tetrahydro-benzo[b]azepine-1-carboxylic acid (3-trifluoromethyl-phenyl)-amide]	175
Nc1nccc(Oc2ccc3c(c2)CCCCN3C(=O)Nc2cccc(C(F)(F)F)c2)n1 [Example 7, 7-(2-Amino-pyrimidin-4-yloxy)-2,3,4,5-tetrahydro-benzo[b]azepine-1-carboxylic acid (3-trifluoromethyl-phenyl)-amide]	207
O=C(Nc1cccc(C(F)(F)F)c1)N1CCCCc2cc(Oc3cc(Cl)ncn3)ccc21 [Example 8, 7-(6-Chloro-pyrimidin-4-yloxy)-2,3,4,5-tetrahydro-benzo[b]azepine-1-carboxylic acid (3-trifluoromethyl-phenyl)-amide]	120
CN1CCN(CCCNc2cc(Oc3ccc4c(c3)CCN4C(=O)Nc3cccc(C(F)(F)F)c3)ncn2)CC1 [Example 18, 5-{6-[3-(4-Methylpiperazin-1-yl)-propylamino]-pyrimidin-4-yloxy}-2,3-dihydro-indole-1-carboxylic acid (3-trifluormethyl-phenyl)-amide]	163
CC(C)Nc1cc(Oc2ccc3c(c2)CCN3C(=O)Nc2cccc(C(F)(F)F)c2)ncn1 [Example 19, 5-(6-Isopropylamino-pyrimidin-4-yloxy)-2,3-dihydro-indole-1-carboxylic acid (3-trifluormethyl-phenyl)-amide]	189
CN1CCN(Cc2ccc(NC(=O)N3CCCc4cc(Oc5ccnc(N)n5)ccc43)cc2C(F)(F)F)CC1 [Example 33, 6-(2-Amino-pyrimidin-4-yloxy)-3,4-dihydro-2H-quinoline-1-carboxylic acid [4-(4-methyl-piperazin-1-ylmethyl)-3-trifluoromethyl-phenyl]-amide]	120 to 123
CC(C)(CCC(=O)Nc1cc(Oc2ccc3c(c2)CCN3C(=O)Nc2ccc(N3CCOCC3)c(C(F)(F)F)c2)ncn1)[N+](=O)[O-] [Example 38]	193 to 197
CC(C)(N)CCC(=O)Nc1cc(Oc2ccc3c(c2)CCN3C(=O)Nc2ccc(N3CCOCC3)c(C(F)(F)F)c2)ncn1 [Example 39]	211 to 214
O=C(Nc1cc(Oc2ccc3c(c2)CCN3C(=O)Nc2ccc(N3CCOCC3)c(C(F)(F)F)c2)ncn1)c1cccnc1 [Example 40]	253 to 258
COC(=O)Nc1cc(Oc2ccc3c(c2)CCN3C(=O)Nc2ccc(N3CCOCC3)c(C(F)(F)F)c2)ncn1 [Example 41]	206 to 209
CN1CCN(C(=O)Nc2cc(Oc3ccc4c(c3)CCN4C(=O)Nc3ccc(N4CCOCC4)c(C(F)(F)F)c3)ncn2)CC1 [Example 42]	175 to 177
O=C(Nc1ccccc1)c1cc(Oc2ccc3c(c2)CCN3C(=O)Nc2cccc(C(F)(F)F)c2)ncn1 [Example 74, 5-(6-Phenylcarbamoyl-pyrimidin-4-yloxy)-2,3-dihydro-indole-1-carboxylic acid (3-trifluoromethyl-phenyl)-amide]	227 to 229
